Results: US11542240B2, “STK19 inhibitors for treatment of cancer” (TRUSTEES OF BOSTON UNIVERSITY, priority 2018, dated 2023)
Where two headings read alike, the source gives them in different places.

How the values were obtained:
Experiment in all cases: biochemical
Type in all cases: binding
[1] = molecular target: panel of 468 diverse kinases (Homo sapiens, UniProt O00506); conditions: YSK1; 1000 nM; read-out: Percent Control
[2] = molecular target: panel of 468 diverse kinases (Homo sapiens, UniProt O43353); conditions: RIPK2; 1000 nM; read-out: Percent Control
[3] = molecular target: panel of 468 diverse kinases (Homo sapiens, UniProt O75676); conditions: 1000 nM, read-out: Percent Control
[4] = molecular target: panel of 468 diverse kinases (Homo sapiens, UniProt O75716); conditions: STK16; 1000 nM; read-out: Percent Control
Chain of panel of 468 diverse kinases (Homo sapiens, UniProt O75716) (O75716 2-305 limits assumed): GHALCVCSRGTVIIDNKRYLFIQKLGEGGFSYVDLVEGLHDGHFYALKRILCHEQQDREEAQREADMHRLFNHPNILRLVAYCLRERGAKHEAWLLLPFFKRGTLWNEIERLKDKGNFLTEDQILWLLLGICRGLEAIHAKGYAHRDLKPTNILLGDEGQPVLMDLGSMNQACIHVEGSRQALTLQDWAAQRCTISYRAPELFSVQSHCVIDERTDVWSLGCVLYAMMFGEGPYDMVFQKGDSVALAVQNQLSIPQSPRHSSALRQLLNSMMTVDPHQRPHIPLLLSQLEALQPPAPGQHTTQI

[5] = molecular target: panel of 468 diverse kinases (Homo sapiens, UniProt P00519, M351T); conditions: ABL1(M351T)-phosphorylated; 1000 nM; read-out: Percent Control
[6] = molecular target: panel of 468 diverse kinases (Homo sapiens, UniProt P04049); conditions: RAF1; 1000 nM; read-out: Percent Control
[7] = molecular target: panel of 468 diverse kinases (Homo sapiens, UniProt P10721, D816V); conditions: KIT(D816V); 1000 nM; read-out: Percent Control
Chain of panel of 468 diverse kinases (Homo sapiens, UniProt P10721, D816V) (P10721 26-976 D816V limits assumed): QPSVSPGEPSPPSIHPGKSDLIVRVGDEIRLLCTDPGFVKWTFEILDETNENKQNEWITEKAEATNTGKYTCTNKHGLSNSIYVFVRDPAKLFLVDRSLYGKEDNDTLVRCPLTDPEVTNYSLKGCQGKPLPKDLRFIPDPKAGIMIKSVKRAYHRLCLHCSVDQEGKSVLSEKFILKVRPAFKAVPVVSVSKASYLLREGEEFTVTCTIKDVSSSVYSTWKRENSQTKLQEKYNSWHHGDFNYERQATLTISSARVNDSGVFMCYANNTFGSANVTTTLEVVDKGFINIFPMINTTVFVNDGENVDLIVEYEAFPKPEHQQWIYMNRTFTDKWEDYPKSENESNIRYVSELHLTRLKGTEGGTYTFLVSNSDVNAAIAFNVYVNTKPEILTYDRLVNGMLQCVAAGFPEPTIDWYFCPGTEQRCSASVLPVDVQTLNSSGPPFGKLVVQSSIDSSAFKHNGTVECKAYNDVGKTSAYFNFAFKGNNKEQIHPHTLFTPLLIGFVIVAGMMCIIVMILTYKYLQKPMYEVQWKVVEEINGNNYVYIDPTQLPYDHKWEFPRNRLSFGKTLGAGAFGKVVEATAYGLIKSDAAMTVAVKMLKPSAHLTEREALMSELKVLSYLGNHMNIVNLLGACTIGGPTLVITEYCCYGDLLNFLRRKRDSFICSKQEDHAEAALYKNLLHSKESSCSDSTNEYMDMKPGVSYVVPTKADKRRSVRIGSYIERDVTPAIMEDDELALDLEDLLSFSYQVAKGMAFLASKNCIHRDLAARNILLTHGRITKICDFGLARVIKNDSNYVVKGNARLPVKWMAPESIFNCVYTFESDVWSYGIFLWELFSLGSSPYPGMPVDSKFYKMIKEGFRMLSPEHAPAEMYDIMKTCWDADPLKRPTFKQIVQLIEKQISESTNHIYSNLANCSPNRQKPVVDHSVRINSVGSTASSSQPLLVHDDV

[8] = molecular target: panel of 468 diverse kinases (Homo sapiens, UniProt P11802); conditions: 1000 nM, read-out: Percent Control
Chain of panel of 468 diverse kinases (Homo sapiens, UniProt P11802) (P11802 2-303 limits assumed): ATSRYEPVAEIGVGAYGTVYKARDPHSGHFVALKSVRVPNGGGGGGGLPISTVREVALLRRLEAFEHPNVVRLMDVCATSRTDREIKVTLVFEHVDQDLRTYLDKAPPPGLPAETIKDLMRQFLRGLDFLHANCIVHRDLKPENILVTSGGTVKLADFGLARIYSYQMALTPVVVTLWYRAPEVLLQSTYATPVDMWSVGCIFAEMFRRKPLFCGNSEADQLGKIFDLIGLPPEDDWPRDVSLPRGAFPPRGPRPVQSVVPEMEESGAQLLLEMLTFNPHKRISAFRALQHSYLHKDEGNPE

[9] = molecular target: panel of 468 diverse kinases (Homo sapiens, UniProt P15735); conditions: PHKG2; 1000 nM; read-out: Percent Control
[10] = molecular target: panel of 468 diverse kinases (Homo sapiens, UniProt P21802); conditions: FGFR2; 1000 nM; read-out: Percent Control
Chain of panel of 468 diverse kinases (Homo sapiens, UniProt P21802) (P21802 22-821 limits assumed): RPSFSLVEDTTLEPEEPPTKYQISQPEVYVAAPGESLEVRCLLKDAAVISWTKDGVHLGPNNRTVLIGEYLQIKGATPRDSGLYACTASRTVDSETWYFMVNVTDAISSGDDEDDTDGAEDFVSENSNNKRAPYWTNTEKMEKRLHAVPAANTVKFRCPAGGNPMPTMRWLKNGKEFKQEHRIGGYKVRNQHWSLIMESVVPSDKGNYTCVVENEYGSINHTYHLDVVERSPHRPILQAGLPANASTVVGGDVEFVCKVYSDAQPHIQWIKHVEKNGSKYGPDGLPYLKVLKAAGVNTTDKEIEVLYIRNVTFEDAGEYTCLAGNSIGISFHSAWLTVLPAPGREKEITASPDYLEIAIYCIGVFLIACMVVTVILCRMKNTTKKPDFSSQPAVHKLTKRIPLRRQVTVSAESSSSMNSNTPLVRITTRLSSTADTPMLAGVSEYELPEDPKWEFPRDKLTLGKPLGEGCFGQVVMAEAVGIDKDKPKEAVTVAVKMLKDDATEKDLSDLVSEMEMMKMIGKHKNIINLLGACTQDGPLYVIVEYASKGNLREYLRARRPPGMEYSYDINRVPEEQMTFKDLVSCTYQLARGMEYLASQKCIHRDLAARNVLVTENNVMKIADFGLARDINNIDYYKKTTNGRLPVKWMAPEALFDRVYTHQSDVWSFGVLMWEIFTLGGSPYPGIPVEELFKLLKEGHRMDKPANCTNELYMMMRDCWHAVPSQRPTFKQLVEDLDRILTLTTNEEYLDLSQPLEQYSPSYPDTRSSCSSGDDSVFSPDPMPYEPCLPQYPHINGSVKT

[11] = molecular target: panel of 468 diverse kinases (Homo sapiens, UniProt P28482); conditions: ERK2; 1000 nM; read-out: Percent Control
[12] = molecular target: panel of 468 diverse kinases (Homo sapiens, UniProt P36888, K663Q); conditions: FLT3(K663Q); 1000 nM; read-out: Percent Control
[13] = molecular target: panel of 468 diverse kinases (Homo sapiens, UniProt P41743); conditions: PRKCI; 1000 nM; read-out: Percent Control
Chain of panel of 468 diverse kinases (Homo sapiens, UniProt P41743) (P41743 2-596 limits assumed): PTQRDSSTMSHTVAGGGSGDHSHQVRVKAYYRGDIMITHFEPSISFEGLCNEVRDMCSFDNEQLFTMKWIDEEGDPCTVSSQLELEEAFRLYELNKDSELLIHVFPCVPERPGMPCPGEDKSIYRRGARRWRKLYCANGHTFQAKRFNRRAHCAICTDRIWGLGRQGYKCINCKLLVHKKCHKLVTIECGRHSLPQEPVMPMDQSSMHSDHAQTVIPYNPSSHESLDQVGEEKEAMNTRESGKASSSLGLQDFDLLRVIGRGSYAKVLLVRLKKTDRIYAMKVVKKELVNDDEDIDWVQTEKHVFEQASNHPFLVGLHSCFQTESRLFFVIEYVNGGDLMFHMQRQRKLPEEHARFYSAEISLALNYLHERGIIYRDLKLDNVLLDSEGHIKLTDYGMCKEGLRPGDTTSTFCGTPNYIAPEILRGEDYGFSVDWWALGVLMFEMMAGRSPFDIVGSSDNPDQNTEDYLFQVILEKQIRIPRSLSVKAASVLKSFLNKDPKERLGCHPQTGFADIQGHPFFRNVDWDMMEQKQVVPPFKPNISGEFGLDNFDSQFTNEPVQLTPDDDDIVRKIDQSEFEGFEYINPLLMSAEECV

[14] = molecular target: panel of 468 diverse kinases (Homo sapiens, UniProt P42336); conditions: PIK3CA; 1000 nM; read-out: Percent Control
[15] = molecular target: panel of 468 diverse kinases (Homo sapiens, UniProt P42336, E545K); conditions: PIK3CA(E545K); 1000 nM; read-out: Percent Control
[16] = molecular target: panel of 468 diverse kinases (Homo sapiens, UniProt P42336, Q546K); conditions: PIK3CA(Q546K); 1000 nM; read-out: Percent Control
[17] = molecular target: panel of 468 diverse kinases (Homo sapiens, UniProt P52564); conditions: MEK6; 1000 nM; read-out: Percent Control
[18] = molecular target: panel of 468 diverse kinases (Homo sapiens, UniProt P54760); conditions: EPHB4; 1000 nM; read-out: Percent Control
Chain of panel of 468 diverse kinases (Homo sapiens, UniProt P54760) (P54760 16-987 limits assumed): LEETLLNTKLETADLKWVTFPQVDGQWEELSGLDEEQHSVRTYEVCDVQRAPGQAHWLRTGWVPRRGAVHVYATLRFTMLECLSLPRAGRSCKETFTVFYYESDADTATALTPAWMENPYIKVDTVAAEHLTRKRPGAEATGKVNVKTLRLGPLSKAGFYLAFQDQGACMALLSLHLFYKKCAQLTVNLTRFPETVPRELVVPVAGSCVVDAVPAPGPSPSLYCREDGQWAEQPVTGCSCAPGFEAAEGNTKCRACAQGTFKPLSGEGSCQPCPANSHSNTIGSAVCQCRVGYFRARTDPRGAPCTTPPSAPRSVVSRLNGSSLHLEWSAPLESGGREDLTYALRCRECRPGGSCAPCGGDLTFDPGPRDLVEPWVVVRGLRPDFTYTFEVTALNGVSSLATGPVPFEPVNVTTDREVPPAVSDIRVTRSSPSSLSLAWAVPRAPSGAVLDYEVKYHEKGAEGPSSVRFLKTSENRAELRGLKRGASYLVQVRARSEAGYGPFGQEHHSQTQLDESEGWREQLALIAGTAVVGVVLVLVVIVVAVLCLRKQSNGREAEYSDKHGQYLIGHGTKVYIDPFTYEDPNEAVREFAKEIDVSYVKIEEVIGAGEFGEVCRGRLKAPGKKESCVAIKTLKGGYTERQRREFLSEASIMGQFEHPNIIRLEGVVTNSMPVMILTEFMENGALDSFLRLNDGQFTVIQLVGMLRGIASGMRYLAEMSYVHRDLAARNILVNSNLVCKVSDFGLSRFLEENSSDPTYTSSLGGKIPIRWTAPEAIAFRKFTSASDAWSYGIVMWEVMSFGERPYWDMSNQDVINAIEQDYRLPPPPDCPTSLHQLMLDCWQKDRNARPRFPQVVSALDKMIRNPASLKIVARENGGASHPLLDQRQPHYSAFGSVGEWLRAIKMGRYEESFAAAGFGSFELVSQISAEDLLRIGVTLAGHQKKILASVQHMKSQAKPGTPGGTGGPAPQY

[19] = molecular target: panel of 468 diverse kinases (Homo sapiens, UniProt Q08345); conditions: DDR1; 1000 nM; read-out: Percent Control
Chain of panel of 468 diverse kinases (Homo sapiens, UniProt Q08345) (Q08345 19-913 limits assumed): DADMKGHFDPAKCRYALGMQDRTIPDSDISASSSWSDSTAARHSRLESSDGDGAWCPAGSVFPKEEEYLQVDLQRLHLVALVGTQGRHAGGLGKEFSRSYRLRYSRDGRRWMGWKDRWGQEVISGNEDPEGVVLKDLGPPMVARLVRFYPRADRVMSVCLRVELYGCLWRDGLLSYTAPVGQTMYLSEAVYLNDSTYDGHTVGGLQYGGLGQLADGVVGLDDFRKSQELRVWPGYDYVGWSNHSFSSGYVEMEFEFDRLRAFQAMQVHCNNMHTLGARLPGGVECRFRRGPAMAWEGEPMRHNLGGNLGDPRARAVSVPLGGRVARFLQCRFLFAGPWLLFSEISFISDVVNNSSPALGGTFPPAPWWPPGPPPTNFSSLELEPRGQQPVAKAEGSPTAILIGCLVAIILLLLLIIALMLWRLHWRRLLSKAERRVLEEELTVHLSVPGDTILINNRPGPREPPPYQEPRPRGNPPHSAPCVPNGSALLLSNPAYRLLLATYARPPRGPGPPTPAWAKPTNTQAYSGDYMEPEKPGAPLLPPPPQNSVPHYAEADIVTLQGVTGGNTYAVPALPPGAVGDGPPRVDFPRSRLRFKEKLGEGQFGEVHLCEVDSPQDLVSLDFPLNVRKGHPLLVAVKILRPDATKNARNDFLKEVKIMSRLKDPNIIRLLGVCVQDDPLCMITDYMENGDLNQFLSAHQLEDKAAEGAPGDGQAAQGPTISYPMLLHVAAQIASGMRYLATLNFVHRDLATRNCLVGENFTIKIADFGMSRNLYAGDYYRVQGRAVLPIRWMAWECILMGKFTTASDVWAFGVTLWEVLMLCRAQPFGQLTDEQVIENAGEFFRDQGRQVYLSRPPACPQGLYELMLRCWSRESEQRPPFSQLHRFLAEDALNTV

[20] = molecular target: panel of 468 diverse kinases (Homo sapiens, UniProt Q16566); conditions: CAMK4; 1000 nM; read-out: Percent Control
[21] = molecular target: panel of 468 diverse kinases (Homo sapiens, UniProt Q2M2I8); conditions: AAK1; 1000 nM; read-out: Percent Control
[22] = molecular target: panel of 468 diverse kinases (Homo sapiens, UniProt Q59H18); conditions: TNNI3K; 1000 nM; read-out: Percent Control
[23] = molecular target: panel of 468 diverse kinases (Homo sapiens, UniProt Q6DT37); conditions: DMPK2; 1000 nM; read-out: Percent Control
[24] = molecular target: panel of 468 diverse kinases (Homo sapiens, UniProt Q7L7X3); conditions: TAOK1; 1000 nM; read-out: Percent Control
[25] = molecular target: panel of 468 diverse kinases (Homo sapiens, UniProt Q86Y07); conditions: VRK2; 1000 nM; read-out: Percent Control
[26] = molecular target: panel of 468 diverse kinases (Homo sapiens, UniProt Q8TF76); conditions: HASPIN; 1000 nM; read-out: Percent Control
[27] = molecular target: panel of 468 diverse kinases (Homo sapiens, UniProt Q96PY6); conditions: NEK1; 1000 nM; read-out: Percent Control
[28] = molecular target: panel of 468 diverse kinases (Homo sapiens, UniProt Q99558); conditions: NIK; 1000 nM; read-out: Percent Control
[29] = molecular target: panel of 468 diverse kinases (Homo sapiens, UniProt Q9UQM7); conditions: CAMK2A; 1000 nM; read-out: Percent Control
[30] = molecular target: panel of 468 diverse kinases (Plasmodium falciparum, UniProt P61075); conditions: read-out: Percent Control
[31] = molecular target: panel of 468 diverse kinases (Plasmodium falciparum, UniProt P62344); conditions: read-out: Percent Control

Q: Which results are given for `COc1cc2nc(NC3CC3)nc(NC3CCN(C(C)C)CC3)c2cc1OC` [Formula IV]?
A: remaining activity at 1 µM [1]: 98%; remaining activity at 1 µM [2]: 94%; remaining activity at 1 µM ([3]; RPS6KA4(Kin.Dom.1-N-terminal)): 90%; remaining activity at 1 µM ([3]; RPS6KA4(Kin.Dom.2-C-terminal)): 46%; remaining activity at 1 µM [4]: 83%; remaining activity at 1 µM [5]: 59%; remaining activity at 1 µM [6]: 83%; remaining activity at 1 µM [7]: 100%; remaining activity at 1 µM ([8]; CDK4-cyclinD1): 67%; remaining activity at 1 µM ([8]; CDK4-cyclinD3): 54%; remaining activity at 1 µM ([8]; CDK4): 62%; remaining activity at 1 µM [9]: 83%; remaining activity at 1 µM [10]: 100%; remaining activity at 1 µM [11]: 81%; remaining activity at 1 µM [12]: 98%; remaining activity at 1 µM [13]: 71%; remaining activity at 1 µM [14]: 97%; remaining activity at 1 µM [15]: 48%; remaining activity at 1 µM [16]: 54%; remaining activity at 1 µM [17]: 99%; remaining activity at 1 µM [18]: 100%; remaining activity at 1 µM [19]: 88%; remaining activity at 1 µM [20]: 98%; remaining activity at 1 µM [21]: 91%; remaining activity at 1 µM [22]: 96%; remaining activity at 1 µM [23]: 99%; remaining activity at 1 µM [24]: 100%; remaining activity at 1 µM [25]: 56%; remaining activity at 1 µM [26]: 71%; remaining activity at 1 µM [27]: 100%; remaining activity at 1 µM [28]: 46%; remaining activity at 1 µM [29]: 87%; remaining activity at 1 µM [30]: 48%; remaining activity at 1 µM [31]: 56%
